# Publication PMC11647725, “Discovery of 4-(5-Membered)Heteroarylether-6-methylpicolinamide Negative Allosteric Modulators of Metabotropic Glutamate Receptor Subtype 5” (ACS Medicinal Chemistry Letters, 2024)
# How the values were obtained:
# CYP 2C9 = biological target: T1, CYP 2C9 (Homo sapiens, UniProt P11712); assay: P450 inhibition in pooled human liver microsomes; assay type: in vitro ADME; details: pooled HLM, NADPH, CYP-specific probe substrates; listed as VU6043653
# T1 construct: from tissue; host or cells: pooled human liver microsomes (per the earlier reading)
# [1] = IV plasma-brain level determination (PBL) in rat; assay type: in vivo; details: male, Sprague-Dawley, brain and plasma, SD rat, 0.2 mg/kg IV
# [2] = In vivo rat pharmacokinetics; design: species or system Sprague–Dawley rat
# [3] = In vivo dog pharmacokinetics; details: Dog (beagle)
# [4] = Hepatocyte metabolism study; assay type: in vitro ADME; details: dog hepatocytes, more so than any other species tested
# Excerpt: (§1) Nonetheless, as a non-aryl/heterobiaryl acetylene mGlu5 NAM with an encouraging in vivo rodent PK profile, we wished to further assess VU6043653 as a novel chemotype. Therefore, we compared metabolites in multiple species to better understand species differences in clearance and metabolism. […] Consistent with the high plasma clearance observed in dogs, high turnover was observed more so in dog hepatocytes than any other species tested (see the Supporting Information for additional details and results). To further evaluate our novel chemotype, the off-target and safety/toxicity profiles for this compound were further investigated.
# Table S3. Tentatively Identified Metabolites of VU6043653 in Rat, Dog, Monkey, and Human Hepatocytes (10 μM incubation for 0 and 4 hours). […]
# metabolite observed with rat, dog, monkey, and human hepatocytes was M1. Overall, the major pathways for VU6043653 appear to be oxidation, demethylation, and glucuronidation.
# (1 picture or pasted object on this page, not shown here)
# [5] = tested on: Calcium Channel L-Type, Benzothiazepine; assay: Lead Profiling Screen, Eurofins Panlabs; assay type: binding; details: rat
# Excerpt: as §1
# (§2) Table S2. Lead Profiling Screen – Eurofins Panlabs for VU6043653.
# (§3) Assay Name Species % inh at 10 μM […]
# [6] = tested on: Calcium Channel L-Type, Dihydropyridine; assay: Lead Profiling Screen, Eurofins Panlabs; assay type: binding; details: rat
# Excerpt: as §1, §2, §3
# Calcium Channel N-Type = Calcium Channel N-Type (Rattus norvegicus, UniProt Q02294); assay: Lead Profiling Screen, Eurofins Panlabs; assay type: binding; details: read-out: % inh at 10 μM
# Excerpt: as §1, §2, §3
# [7] = biological target: Epidermal Growth Factor (EGF) (Homo sapiens, UniProt P00533); assay: Lead Profiling Screen, Eurofins Panlabs; assay type: binding; details: hum, read-out: % inh at 10 μM
# Excerpt: as §1, §2, §3
# [8] = tested on: GABAA, Flunitrazepam, Central; assay: Lead Profiling Screen, Eurofins Panlabs; assay type: binding; details: rat
# Excerpt: as §1, §2, §3
# GABAA, Muscimol, Central = assay: Lead Profiling Screen, Eurofins Panlabs; assay type: binding; details: rat
# Excerpt: as §1, §2, §3
# Glutamate, Kainate = assay: Lead Profiling Screen, Eurofins Panlabs; assay type: binding; details: rat
# Excerpt: as §1, §2, §3
# Glutamate, NMDA, Agonism = assay: Lead Profiling Screen, Eurofins Panlabs; assay type: binding; details: rat
# Excerpt: as §1, §2, §3
# Glutamate, NMDA, Glycine = Glutamate, NMDA, Glycine (Rattus norvegicus, UniProt P35439); assay: Lead Profiling Screen, Eurofins Panlabs; assay type: binding; details: read-out: % inh at 10 μM
# Excerpt: as §1, §2, §3
# [9] = tested on: Glutamate, NMDA, Phencyclidine; assay: Lead Profiling Screen, Eurofins Panlabs; assay type: binding; details: rat
# Excerpt: as §1, §2, §3
# Melatonin MT1 = Melatonin MT1 (Homo sapiens, UniProt P48039); assay: Lead Profiling Screen, Eurofins Panlabs; assay type: binding; details: Melatonin MT1, hum, read-out: % inh at 10 μM
# Muscarinic M3 = Muscarinic M3 (Homo sapiens, UniProt P20309); assay: Lead Profiling Screen, Eurofins Panlabs; assay type: binding; details: Muscarinic M3, hum, read-out: % inh at 10 μM
# Neuropeptide Y Y2 = Neuropeptide Y Y2 (Homo sapiens, UniProt P49146); assay: Lead Profiling Screen, Eurofins Panlabs; assay type: binding; details: Neuropeptide Y Y2, hum, read-out: % inh at 10 μM
# Opiate κ (OP2, KOP) = Opiate κ (OP2, KOP) (Homo sapiens, UniProt P41145); assay: Lead Profiling Screen, Eurofins Panlabs; assay type: binding; details: hum, read-out: % inh at 10 μM
# Opiate μ (OP3, MOP) = Opiate μ (OP3, MOP) (Homo sapiens, UniProt P35372); assay: Lead Profiling Screen, Eurofins Panlabs; assay type: binding; details: hum, read-out: % inh at 10 μM
# [10] = biological target: Platelet Activating Factor (PAF) (Homo sapiens, UniProt P25105); assay: Lead Profiling Screen, Eurofins Panlabs; assay type: binding; details: hum, read-out: % inh at 10 μM
# Potassium Channel [KATP] = assay: Lead Profiling Screen, Eurofins Panlabs; assay type: binding, hamster; details: ham
# Prostanoid EP4 = Prostanoid EP4 (Homo sapiens, UniProt P35408); assay: Lead Profiling Screen, Eurofins Panlabs; assay type: binding; details: Prostanoid EP4, hum, read-out: % inh at 10 μM
# Purinergic P2X = assay: Lead Profiling Screen, Eurofins Panlabs; assay type: binding; details: rat
# [11] = tested on: Purinergic P2Y, Non-Selective; assay: Lead Profiling Screen, Eurofins Panlabs; assay type: binding; details: rat
# Rolipram = assay: Lead Profiling Screen, Eurofins Panlabs; assay type: binding; details: rat
# Sigma σ1 = Sigma σ1 (Homo sapiens, UniProt Q99720); assay: Lead Profiling Screen, Eurofins Panlabs; assay type: binding; details: Sigma σ1, hum, read-out: % inh at 10 μM
# Sodium Channel, Site 2 = assay: Lead Profiling Screen, Eurofins Panlabs; assay type: binding; details: Site 2, rat
# [12] = biological target: Transporter, Dopamine (DAT) (Homo sapiens, UniProt Q01959); assay: Lead Profiling Screen, Eurofins Panlabs; assay type: binding; details: hum, read-out: % inh at 10 μM
# Transporter, Dopamine (DAT), sequence (Q01959 whole entry): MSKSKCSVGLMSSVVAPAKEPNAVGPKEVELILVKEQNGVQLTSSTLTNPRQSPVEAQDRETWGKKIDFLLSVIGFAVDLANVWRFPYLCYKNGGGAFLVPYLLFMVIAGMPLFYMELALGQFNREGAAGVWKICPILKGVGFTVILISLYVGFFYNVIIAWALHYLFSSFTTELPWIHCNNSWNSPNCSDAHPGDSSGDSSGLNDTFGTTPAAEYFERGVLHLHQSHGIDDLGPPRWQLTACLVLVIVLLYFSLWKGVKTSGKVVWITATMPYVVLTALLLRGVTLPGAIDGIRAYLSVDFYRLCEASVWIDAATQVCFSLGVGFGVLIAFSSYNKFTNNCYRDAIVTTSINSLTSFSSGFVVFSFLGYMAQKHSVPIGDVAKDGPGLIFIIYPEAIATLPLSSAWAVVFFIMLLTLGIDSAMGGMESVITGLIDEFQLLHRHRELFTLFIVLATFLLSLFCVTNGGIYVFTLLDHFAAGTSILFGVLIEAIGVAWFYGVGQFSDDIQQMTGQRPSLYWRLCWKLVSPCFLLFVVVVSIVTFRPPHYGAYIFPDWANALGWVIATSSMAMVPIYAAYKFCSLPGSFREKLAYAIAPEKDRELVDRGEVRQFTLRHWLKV
# T1 sequence (P11712 whole entry): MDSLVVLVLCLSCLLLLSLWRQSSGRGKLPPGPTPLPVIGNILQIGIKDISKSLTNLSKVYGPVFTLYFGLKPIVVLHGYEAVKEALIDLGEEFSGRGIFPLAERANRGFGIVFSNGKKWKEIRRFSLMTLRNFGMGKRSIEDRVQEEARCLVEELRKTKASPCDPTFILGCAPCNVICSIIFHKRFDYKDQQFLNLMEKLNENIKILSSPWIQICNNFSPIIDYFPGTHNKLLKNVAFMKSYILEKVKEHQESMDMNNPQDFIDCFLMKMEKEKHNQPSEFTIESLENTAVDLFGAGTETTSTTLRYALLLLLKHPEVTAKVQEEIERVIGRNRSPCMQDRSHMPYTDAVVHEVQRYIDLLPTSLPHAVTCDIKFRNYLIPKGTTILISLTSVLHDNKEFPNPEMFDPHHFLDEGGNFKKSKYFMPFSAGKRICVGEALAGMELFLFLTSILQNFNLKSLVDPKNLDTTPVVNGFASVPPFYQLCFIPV
# Melatonin MT1, sequence (P48039 whole entry): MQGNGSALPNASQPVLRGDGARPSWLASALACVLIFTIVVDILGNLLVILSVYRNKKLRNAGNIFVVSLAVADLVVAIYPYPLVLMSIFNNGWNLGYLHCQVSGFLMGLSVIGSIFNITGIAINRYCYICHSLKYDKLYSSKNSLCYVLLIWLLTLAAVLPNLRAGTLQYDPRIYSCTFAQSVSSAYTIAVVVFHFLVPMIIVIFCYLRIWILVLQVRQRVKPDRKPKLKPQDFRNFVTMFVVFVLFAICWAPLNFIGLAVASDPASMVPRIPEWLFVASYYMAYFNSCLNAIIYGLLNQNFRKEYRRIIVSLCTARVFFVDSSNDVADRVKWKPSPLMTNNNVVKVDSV
# Muscarinic M3, sequence (P20309 whole entry): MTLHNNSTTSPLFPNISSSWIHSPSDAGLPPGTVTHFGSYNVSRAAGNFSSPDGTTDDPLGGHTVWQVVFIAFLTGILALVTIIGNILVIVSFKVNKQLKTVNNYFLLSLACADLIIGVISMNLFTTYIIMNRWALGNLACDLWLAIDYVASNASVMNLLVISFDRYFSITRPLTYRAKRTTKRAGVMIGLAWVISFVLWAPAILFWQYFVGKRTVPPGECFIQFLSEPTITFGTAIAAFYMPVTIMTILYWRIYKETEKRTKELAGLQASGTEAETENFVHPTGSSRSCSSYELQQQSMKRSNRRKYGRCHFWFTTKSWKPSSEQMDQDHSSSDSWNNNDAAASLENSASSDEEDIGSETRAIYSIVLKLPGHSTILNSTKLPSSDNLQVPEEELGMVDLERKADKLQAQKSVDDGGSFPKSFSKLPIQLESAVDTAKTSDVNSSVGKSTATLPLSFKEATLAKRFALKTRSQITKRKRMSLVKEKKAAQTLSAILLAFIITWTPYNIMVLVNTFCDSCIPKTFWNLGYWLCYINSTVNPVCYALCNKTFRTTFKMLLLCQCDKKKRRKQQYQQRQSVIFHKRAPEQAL
# Opiate μ (OP3, MOP), sequence (P35372 whole entry): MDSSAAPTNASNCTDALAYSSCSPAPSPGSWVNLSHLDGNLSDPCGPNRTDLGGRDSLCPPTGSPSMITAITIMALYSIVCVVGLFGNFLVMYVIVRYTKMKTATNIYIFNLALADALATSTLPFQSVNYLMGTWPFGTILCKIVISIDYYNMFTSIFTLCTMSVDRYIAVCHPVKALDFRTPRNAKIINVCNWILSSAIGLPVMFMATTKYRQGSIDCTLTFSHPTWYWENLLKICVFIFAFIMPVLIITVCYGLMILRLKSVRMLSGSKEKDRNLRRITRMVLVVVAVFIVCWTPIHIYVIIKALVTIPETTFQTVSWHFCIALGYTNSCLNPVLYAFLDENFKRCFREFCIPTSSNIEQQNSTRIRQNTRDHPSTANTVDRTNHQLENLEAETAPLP
# Calcium Channel N-Type, sequence (Q02294 whole entry): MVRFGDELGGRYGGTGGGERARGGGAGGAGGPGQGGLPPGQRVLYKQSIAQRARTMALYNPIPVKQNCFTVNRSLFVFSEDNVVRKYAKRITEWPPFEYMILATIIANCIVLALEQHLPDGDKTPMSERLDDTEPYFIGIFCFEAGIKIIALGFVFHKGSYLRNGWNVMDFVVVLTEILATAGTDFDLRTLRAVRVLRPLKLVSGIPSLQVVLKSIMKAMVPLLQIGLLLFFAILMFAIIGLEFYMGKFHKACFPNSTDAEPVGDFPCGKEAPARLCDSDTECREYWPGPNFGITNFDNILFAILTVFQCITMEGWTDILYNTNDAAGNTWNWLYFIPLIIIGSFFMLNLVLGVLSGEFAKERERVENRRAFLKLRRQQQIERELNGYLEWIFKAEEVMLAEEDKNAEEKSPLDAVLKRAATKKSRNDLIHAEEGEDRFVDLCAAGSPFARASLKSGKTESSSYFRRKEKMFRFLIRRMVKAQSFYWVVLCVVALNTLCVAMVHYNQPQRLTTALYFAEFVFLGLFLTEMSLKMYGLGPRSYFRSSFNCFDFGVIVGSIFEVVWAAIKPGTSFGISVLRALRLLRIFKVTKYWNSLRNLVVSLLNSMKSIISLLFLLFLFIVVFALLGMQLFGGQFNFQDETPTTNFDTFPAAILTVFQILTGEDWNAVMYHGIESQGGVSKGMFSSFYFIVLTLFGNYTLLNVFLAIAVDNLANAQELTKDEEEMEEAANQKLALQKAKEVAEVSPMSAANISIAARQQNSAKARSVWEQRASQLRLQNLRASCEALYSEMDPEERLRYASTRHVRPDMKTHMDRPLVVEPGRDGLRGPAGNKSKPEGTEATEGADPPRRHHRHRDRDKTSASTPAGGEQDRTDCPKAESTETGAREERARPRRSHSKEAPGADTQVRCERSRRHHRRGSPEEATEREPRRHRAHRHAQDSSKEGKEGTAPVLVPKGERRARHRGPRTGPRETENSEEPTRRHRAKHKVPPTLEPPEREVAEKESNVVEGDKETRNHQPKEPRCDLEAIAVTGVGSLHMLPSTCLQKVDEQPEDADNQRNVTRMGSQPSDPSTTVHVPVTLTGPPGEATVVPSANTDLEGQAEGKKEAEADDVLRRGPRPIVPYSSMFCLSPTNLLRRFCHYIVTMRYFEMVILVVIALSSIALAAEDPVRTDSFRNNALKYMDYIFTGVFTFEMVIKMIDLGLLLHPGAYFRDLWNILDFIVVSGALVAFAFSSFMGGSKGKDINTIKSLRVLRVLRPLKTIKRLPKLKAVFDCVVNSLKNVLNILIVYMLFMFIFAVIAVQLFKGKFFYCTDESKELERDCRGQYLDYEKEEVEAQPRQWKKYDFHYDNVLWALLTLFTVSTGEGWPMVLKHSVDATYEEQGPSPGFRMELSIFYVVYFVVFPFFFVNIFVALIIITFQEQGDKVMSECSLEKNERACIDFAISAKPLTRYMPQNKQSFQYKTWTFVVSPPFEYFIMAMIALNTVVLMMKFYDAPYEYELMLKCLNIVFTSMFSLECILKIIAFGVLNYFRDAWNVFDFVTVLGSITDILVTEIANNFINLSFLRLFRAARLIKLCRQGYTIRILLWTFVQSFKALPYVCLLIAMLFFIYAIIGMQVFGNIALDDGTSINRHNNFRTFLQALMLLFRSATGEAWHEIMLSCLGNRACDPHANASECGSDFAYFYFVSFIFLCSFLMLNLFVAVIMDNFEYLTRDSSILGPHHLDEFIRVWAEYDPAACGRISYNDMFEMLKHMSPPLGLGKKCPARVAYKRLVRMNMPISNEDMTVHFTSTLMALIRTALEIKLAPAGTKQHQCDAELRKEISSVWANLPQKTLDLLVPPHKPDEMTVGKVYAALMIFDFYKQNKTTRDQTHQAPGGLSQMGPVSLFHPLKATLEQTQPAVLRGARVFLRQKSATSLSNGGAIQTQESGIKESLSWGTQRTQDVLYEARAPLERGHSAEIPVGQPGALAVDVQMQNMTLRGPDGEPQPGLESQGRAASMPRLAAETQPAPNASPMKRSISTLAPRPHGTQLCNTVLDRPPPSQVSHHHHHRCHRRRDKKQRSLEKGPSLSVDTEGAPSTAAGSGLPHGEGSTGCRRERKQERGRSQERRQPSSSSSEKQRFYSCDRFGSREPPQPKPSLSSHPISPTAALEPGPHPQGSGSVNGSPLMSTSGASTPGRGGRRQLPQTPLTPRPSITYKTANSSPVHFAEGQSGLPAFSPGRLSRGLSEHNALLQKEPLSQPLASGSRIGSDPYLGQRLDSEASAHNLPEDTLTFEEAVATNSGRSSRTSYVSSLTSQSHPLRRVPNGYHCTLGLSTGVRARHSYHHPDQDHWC
# Sigma σ1, sequence (Q99720 whole entry): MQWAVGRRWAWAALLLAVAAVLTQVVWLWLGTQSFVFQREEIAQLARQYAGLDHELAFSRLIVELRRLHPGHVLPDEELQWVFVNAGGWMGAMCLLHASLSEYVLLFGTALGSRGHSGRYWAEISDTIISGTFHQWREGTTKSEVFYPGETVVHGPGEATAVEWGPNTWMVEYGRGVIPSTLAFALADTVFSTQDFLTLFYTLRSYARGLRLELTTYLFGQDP
smiles,measurement,setting,value
Cc1cc(Oc2cnn(C)c2)cc(C(=O)Nc2ccc(F)cn2)n1 [22iA],IC50,CYP 2C9,≥ 30 µM
same,Kp at 0.25 h,[1]; total brain-to-plasma partition ratio,1.68
same,Kp uu at 0.25 h,[1]; unbound brain-to-plasma partition ratio,0.34
same,CLp,"[2]; Rat (SD), IV 1.0 mg/kg",41 mL/min/kg
same,MRT,"[2]; Rat (SD), IV 1.0 mg/kg",50.4 min
same,Vss,"[2]; Rat (SD), IV 1.0 mg/kg",2.0 L/kg
same,t1/2,"[2]; Rat (SD), IV 1.0 mg/kg",44.4 min
same,AUC0-∞,"[2]; Rat (SD), PO 10.0 mg/kg",1320 ng·h/mL
same,Cmax,"[2]; Rat (SD), PO 10.0 mg/kg",402 ng/mL
same,Tmax,"[2]; Rat (SD), PO 10.0 mg/kg",117 min
same,%F,"[2]; Rat (SD), PO 10.0 mg/kg, oral bioavailability",43%
same,half-life,"[2]; Sprague-Dawley, rat, plasma, intravenous, 1 mg/kg, rats, value as given in running text, read-out: elimination t1/2",~45 min
same,bioavailability,"[2]; Sprague-Dawley, rat, plasma, po, 10 mg/kg",40%
same,CLp,[3]; IV 0.5 mg/kg,38 mL/min/kg
same,MRT,[3]; IV 0.5 mg/kg,84.6 min
same,Vss,[3]; IV 0.5 mg/kg,3.2 L/kg
same,t1/2,[3]; IV 0.5 mg/kg,93 min
same,AUC0-∞,[3]; PO 3.0 mg/kg,264 ng·h/mL
same,Cmax,[3]; PO 3.0 mg/kg,70.3 ng/mL
same,Tmax,[3]; PO 3.0 mg/kg,40.2 min
same,%F,"[3]; PO 3.0 mg/kg, oral bioavailability",20%
same,turnover in hepatocytes,[4],high turnover
same,% inh at 10 μM,[5],22%
same,% inh at 10 μM,[6],1%
same,inhibition at 10 µM,Calcium Channel N-Type,-8%
same,inhibition at 10 µM,[7],-3%
same,% inh at 10 μM,[8],0%
same,% inh at 10 μM,"GABAA, Muscimol, Central",-5%
same,% inh at 10 μM,"Glutamate, Kainate",-7%
same,% inh at 10 μM,"Glutamate, NMDA, Agonism",3%
same,inhibition at 10 µM,"Glutamate, NMDA, Glycine",-18%
same,% inh at 10 μM,[9],-4%
same,inhibition at 10 µM,Melatonin MT1,15%
same,inhibition at 10 µM,Muscarinic M3,-15%
same,inhibition at 10 µM,Neuropeptide Y Y2,-5%
same,inhibition at 10 µM,"Opiate κ (OP2, KOP)",2%
same,inhibition at 10 µM,"Opiate μ (OP3, MOP)",9%
same,inhibition at 10 µM,[10],3%
same,% inh at 10 μM,Potassium Channel [KATP],2%
same,inhibition at 10 µM,Prostanoid EP4,8%
same,% inh at 10 μM,Purinergic P2X,15%
same,% inh at 10 μM,[11],9%
same,% inh at 10 μM,Rolipram,-2%
same,inhibition at 10 µM,Sigma σ1,0%
same,% inh at 10 μM,"Sodium Channel, Site 2",25%
same,inhibition at 10 µM,[12],25%
